Laboratory results from ChEMBL document CHEMBL1201862, “PubChem BioAssay data set” (2004).
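Compound exposure: 48 hours, 5 concentrations, 96-well plates. Here, GI50 denotes the concentration required for 50% inhibition of growth.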 Activity calls are given as the source filed them. Cut-off read from the data, not from the text of the source: active = GI50 up to about 1.1 µM and inactive = higher.

Tests used:
Assay in all cases: NCI-60 cell line screen, 48 h
T47D = system: T47D
786-0 = system: 786-0
A549 = system: A549
SNB-75 = system: SNB-75
BT-549 = system: BT-549
K562 = system: K562
MDA-MB-231 = system: MDA-MB-231
KM12 = system: KM12
DU-145 = system: DU-145
NCI-H522 = system: NCI-H522
SF-268 = system: SF-268
SK-OV-3 = system: SK-OV-3
MCF7 = system: MCF7
A498 = system: A498
OVCAR-5 = system: OVCAR-5
NCI-H226 = system: NCI-H226
SK-MEL-5 = system: SK-MEL-5
SF-539 = system: SF-539
NCI-H460 = system: NCI-H460

Structure (SMILES)	GI50 (T47D)	GI50 (786-0)	GI50 (A549)	GI50 (SNB-75)	GI50 (BT-549)	GI50 (K562)	GI50 (MDA-MB-231)	GI50 (KM12)	GI50 (DU-145)	GI50 (NCI-H522)	GI50 (SF-268)	GI50 (SK-OV-3)	GI50 (MCF7)	GI50 (A498)	GI50 (OVCAR-5)	GI50 (NCI-H226)	GI50 (SK-MEL-5)	GI50 (SF-539)	GI50 (NCI-H460)
O=CN1CCN(CC(O)CN2CCCCC2)CC1 (stereo unspecified)	> 100 µM (inactive)	> 100 µM (inactive)	> 100 µM (inactive)	> 100 µM (inactive)	> 100 µM (inactive)	> 100 µM (inactive)	> 100 µM (inactive)	> 100 µM (inactive)	> 100 µM (inactive)	> 100 µM (inactive)	> 100 µM (inactive)	> 100 µM (inactive)	> 100 µM (inactive)	> 100 µM (inactive)	> 100 µM (inactive)	> 100 µM (inactive)	> 100 µM (inactive)	–	–
COc1ccc(/N=C/N(C)C)c(C)c1	9.55 µM (inactive)	13.6 µM (inactive)	7.23 µM (inactive)	16.7 µM (inactive)	18.3 µM (inactive)	2.51 µM (inactive)	5.83 µM (inactive)	–	4.16 µM (inactive)	2.43 µM (inactive)	19 µM (inactive)	18.7 µM (inactive)	8.26 µM (inactive)	18.1 µM (inactive)	20.5 µM (inactive)	11.2 µM (inactive)	3.01 µM (inactive)	22.9 µM (inactive)	–
Clc1ccc2nc3[nH]nc(Cl)c3nc2c1	44.1 µM (inactive)	61.5 µM (inactive)	36.8 µM (inactive)	48.6 µM (inactive)	28.4 µM (inactive)	52.4 µM (inactive)	57.7 µM (inactive)	59.3 µM (inactive)	50.7 µM (inactive)	–	47.9 µM (inactive)	41.9 µM (inactive)	59.8 µM (inactive)	46.2 µM (inactive)	48.1 µM (inactive)	–	27.1 µM (inactive)	40.8 µM (inactive)	40.1 µM (inactive)
Cc1n[nH]c(=O)n1N1C(=O)c2ccccc2C1=O	> 100 µM (inactive)	> 100 µM (inactive)	> 100 µM (inactive)	26.4 µM (inactive)	> 100 µM (inactive)	> 100 µM (inactive)	> 100 µM (inactive)	> 100 µM (inactive)	> 100 µM (inactive)	–	–	–	> 100 µM (inactive)	> 100 µM (inactive)	> 100 µM (inactive)	> 100 µM (inactive)	> 100 µM (inactive)	> 100 µM (inactive)	> 100 µM (inactive)
O=[N+]([O-])c1ccc2c(c1)c(OCc1ccccc1)nn2Cc1ccccc1	> 100 µM (inactive)	55 µM (inactive)	64.1 µM (inactive)	–	71.8 µM (inactive)	> 100 µM (inactive)	> 100 µM (inactive)	> 100 µM (inactive)	> 100 µM (inactive)	23 µM (inactive)	> 100 µM (inactive)	> 100 µM (inactive)	> 100 µM (inactive)	33 µM (inactive)	> 100 µM (inactive)	> 100 µM (inactive)	58.2 µM (inactive)	34.5 µM (inactive)	> 100 µM (inactive)
CC(C)(C)C1CCC2c3c([nH]c4ccccc34)C3C(=O)N(c4cccc([N+](=O)[O-])c4)C(=O)C3C2C1 (stereo unspecified)	28.8 µM (inactive)	17.4 µM (inactive)	39.5 µM (inactive)	59.6 µM (inactive)	17 µM (inactive)	> 100 µM (inactive)	30.5 µM (inactive)	5.62 µM (inactive)	25.9 µM (inactive)	14.6 µM (inactive)	21 µM (inactive)	> 100 µM (inactive)	32.5 µM (inactive)	41.2 µM (inactive)	52.2 µM (inactive)	25.4 µM (inactive)	–	49.9 µM (inactive)	13.6 µM (inactive)
CC1OC(n2cnc3c(N)nc(Cl)nc32)C(C)(O)C1O (stereo unspecified)	> 25 µM (inactive)	> 25 µM (inactive)	> 25 µM (inactive)	1.41 µM (inactive)	> 25 µM (inactive)	> 25 µM (inactive)	> 25 µM (inactive)	> 25 µM (inactive)	> 25 µM (inactive)	> 25 µM (inactive)	> 25 µM (inactive)	> 25 µM (inactive)	> 25 µM (inactive)	> 25 µM (inactive)	> 25 µM (inactive)	> 25 µM (inactive)	> 25 µM (inactive)	> 25 µM (inactive)	–
CC(=O)OC[C@@H]1[C@H]2CC[C@]3(C)[C@@H](OC(C)=O)CC[C@H]3[C@@H]2CC[C@H]1C1(C)SCCS1	> 25 µM (inactive)	> 25 µM (inactive)	> 25 µM (inactive)	> 25 µM (inactive)	> 25 µM (inactive)	> 25 µM (inactive)	> 25 µM (inactive)	> 25 µM (inactive)	> 25 µM (inactive)	> 25 µM (inactive)	> 25 µM (inactive)	–	> 25 µM (inactive)	> 25 µM (inactive)	> 25 µM (inactive)	> 25 µM (inactive)	23.2 µM (inactive)	> 25 µM (inactive)	> 25 µM (inactive)
O=C(O)CCC[C@]1(O)O[C@@]2(CCCC2=O)[C@]2(O)CCC[C@@]21O	> 100 µM (inactive)	> 100 µM (inactive)	> 100 µM (inactive)	> 100 µM (inactive)	> 100 µM (inactive)	> 100 µM (inactive)	> 100 µM (inactive)	> 100 µM (inactive)	> 100 µM (inactive)	0.106 µM (active)	> 100 µM (inactive)	–	> 100 µM (inactive)	> 100 µM (inactive)	> 100 µM (inactive)	> 100 µM (inactive)	> 100 µM (inactive)	> 100 µM (inactive)	> 100 µM (inactive)
CCCCCCCCCCCCCCCCC(=O)NCC(=O)NCC(=O)NC(Cc1ccccc1)C(=O)Oc1ccc([N+](=O)[O-])cc1 (stereo unspecified)	30.7 µM (inactive)	27.5 µM (inactive)	> 10 µM (inactive)	45.2 µM (inactive)	16.7 µM (inactive)	23.3 µM (inactive)	23.4 µM (inactive)	22.7 µM (inactive)	> 100 µM (inactive)	26.7 µM (inactive)	23.3 µM (inactive)	–	48.4 µM (inactive)	> 100 µM (inactive)	27.5 µM (inactive)	35 µM (inactive)	21.6 µM (inactive)	27.6 µM (inactive)	18.3 µM (inactive)
CC1(C)CNC(c2ccc3c(c2)Cc2cc(C4=NC(C)(C)CN4)ccc2-3)=N1	61.2 µM (inactive)	49.8 µM (inactive)	> 100 µM (inactive)	90.6 µM (inactive)	> 100 µM (inactive)	24.4 µM (inactive)	39.1 µM (inactive)	28.1 µM (inactive)	> 100 µM (inactive)	29.9 µM (inactive)	34.6 µM (inactive)	44.5 µM (inactive)	23.3 µM (inactive)	77.8 µM (inactive)	> 100 µM (inactive)	49.4 µM (inactive)	60.7 µM (inactive)	–	30.8 µM (inactive)
CCOC(=O)c1c(NC(=O)OC)c(C#N)c2n1CCCCC2	> 100 µM (inactive)	> 100 µM (inactive)	–	> 100 µM (inactive)	> 100 µM (inactive)	> 100 µM (inactive)	35.7 µM (inactive)	> 100 µM (inactive)	22.8 µM (inactive)	–	> 100 µM (inactive)	> 100 µM (inactive)	> 100 µM (inactive)	> 100 µM (inactive)	–	> 100 µM (inactive)	> 100 µM (inactive)	> 100 µM (inactive)	> 100 µM (inactive)
CCOC(=O)CNC1=Nc2ccccc2C(=O)N2CSCC12 (stereo unspecified)	> 100 µM (inactive)	> 100 µM (inactive)	> 100 µM (inactive)	> 100 µM (inactive)	> 100 µM (inactive)	> 100 µM (inactive)	> 100 µM (inactive)	> 100 µM (inactive)	> 100 µM (inactive)	> 100 µM (inactive)	> 100 µM (inactive)	> 100 µM (inactive)	> 100 µM (inactive)	> 100 µM (inactive)	> 100 µM (inactive)	> 100 µM (inactive)	> 100 µM (inactive)	–	> 100 µM (inactive)
CC1(C)COP(=S)(c2ccccn2)O[C@@H]1c1ccccc1 (stereo partly specified)	22.3 µM (inactive)	> 100 µM (inactive)	81.3 µM (inactive)	6.19 µM (inactive)	> 100 µM (inactive)	41.6 µM (inactive)	> 100 µM (inactive)	> 100 µM (inactive)	> 100 µM (inactive)	56.6 µM (inactive)	> 100 µM (inactive)	> 100 µM (inactive)	98.6 µM (inactive)	> 100 µM (inactive)	> 100 µM (inactive)	37.9 µM (inactive)	26.9 µM (inactive)	–	> 100 µM (inactive)
CN(c1ccc(Cl)cc1)S(=O)(=O)c1ccccc1	34.2 µM (inactive)	> 100 µM (inactive)	72.4 µM (inactive)	61.4 µM (inactive)	32 µM (inactive)	36.8 µM (inactive)	35.4 µM (inactive)	40.8 µM (inactive)	> 100 µM (inactive)	76.7 µM (inactive)	49 µM (inactive)	78.5 µM (inactive)	52.4 µM (inactive)	–	52.8 µM (inactive)	30.4 µM (inactive)	18.7 µM (inactive)	43 µM (inactive)	43.1 µM (inactive)
COc1ccc2c(c1)nc1n2C(c2c(F)cccc2F)SC1 (stereo unspecified)	71.6 µM (inactive)	48.2 µM (inactive)	34.8 µM (inactive)	39.3 µM (inactive)	59 µM (inactive)	43.8 µM (inactive)	> 100 µM (inactive)	25 µM (inactive)	> 100 µM (inactive)	–	32.2 µM (inactive)	40.8 µM (inactive)	38.3 µM (inactive)	> 100 µM (inactive)	> 100 µM (inactive)	62.7 µM (inactive)	24.2 µM (inactive)	47.3 µM (inactive)	39.4 µM (inactive)
